Laboratory results published in patent US6126966A (Sequus Pharmaceuticals, Inc., priority 1999, dated 2000).

Experiments:
[1] = preclinical studies; Weiss, et al., 1993; cited from earlier work
C26 colon tumor = C26 colon tumor model, altered dosing schedule (FIG. 6); type: in vivo, mice (Balb/c, male); conditions: IV, days 12, 19, 26, free cisplatin 6 mg/kg, liposomal 6, 12/4/4 or 14/4/4 mg/kg
Protocol: That is, liposome-entrapped cisplatin was administered with a larger loading dose followed by smaller doses at the second and third weeks.
The C26 colon tumor model was grown in Balb/c, male mice (Simonson Laboratories, Inc., Gilroy, Calif.). Tumors were harvested from donor mice for and minced finely in RPMI media with 10% fetal calf serum (FCS). Tumors were then digested with enzyme mix (10 ml 0.25% protease type IX and 0.25% collagenase type IV in Hank's balanced salt solution (HBSS) and 0.2% ml 0.02% DNase in HBSS) for 30-60 minutes at 37° C. Single cell suspension of tumor cells was washed twice in RPMI media with FCS, concentrated by centrifugation and resuspended in RPMI media with FCS for inoculation. One million tumor cells (0.1 ml) were inoculated in the left flank of 5-6 week old mice.
2. Altered Dosing Schedule. Mice were inoculated with the C26 colon tumor cells according to the above-described procedure. Treatment of the tumor-bearing mice was initiated when the majority of animals had palpable tumors mass of about 100 mm^3.
Cisplatin entrapped in liposomes, prepared as described above, was administered intravenously according to three dosing schedules to tumor-bearing mice. […] The control group (n=5) received saline on each treatment day.

[2] = test system: tumor models in laboratory animals and human tumors; conditions: Sur 1983; Steerenberg 1987; cited from earlier work
[3] = Freise, et al., 1982; cited from earlier work
[4] = IV, once per week for 3 weeks, mice; cited from earlier work
Lewis lung carcinoma = assay: Lewis lung tumor model (FIG. 7); type: in vivo, mice (B6C3-F1, male); conditions: days 7, 14, 21, free cisplatin 6 mg/kg, liposomal 12 mg/kg
Protocol: Mice bearing the Lewis lung carcinoma tumor model were treated with cisplatin, administered intravenously and intraperitoneally, or with liposome-entrapped cisplatin, administered similarly. […] A control group of tumor-bearing mice were treated with saline.
The Lewis lung tumor (LL/2, CRL-1642, ATCC, Rockville, Md.) model was grown in G6C3-F1, male mice (Simonson Laboratories, Inc., Gilroy, Calif.). Tumors were harvested from donor mice and processed as above for inoculation of an experiment. One million tumor cells (0.1 ml) were inoculated in the left flank of 5-6 week old, male, B6C3-F1 mice.
Treatment of the tumor-bearing animals was initiated seven days after inoculation, when the majority of animals had palpable tumor masses.
The control group (n=9) received saline on the treatment days (days 7, 14 and 21).

[5] = test system: squamous cell cancer of the head and neck; conditions: 80 mg/m^2, 24-hour intravenous infusion; Prestayko, 1991; cited from earlier work

Structure (SMILES)	antitumor activity relative to cisplatin [1]	nephrotoxicity relative to cisplatin [1]	tumor mass (C26 colon tumor)	antitumor effectiveness [2]	excretion via the kidneys [3]	maximally tolerated dose [4] [mg/kg]	antitumor response, IV vs IP administration (Lewis lung carcinoma)	clinical response [5]
N.N.O=C([O-])C1(C(=O)[O-])CCC1.[Pt+2] [carboplatin, 1,1-cyclobutane-dicarboxylate-diammineplatinum]	equivalent or greater antitumor activity than cisplatin	less nephrotoxicity						
N.N.[Cl][Pt][Cl] [cisplatin, cis-diamine-dichloroplatinum (II)]			continual increase in tumor mass	highly effective in the treatment of tumor models in laboratory animals and in human tumors	rapid excretion via the kidneys	6	similar	favorable response
